Laboratory results from patent US10786522B2, “Compositions that include anthocyanidins and methods of use” (Maqui NewLife S.A., priority 2009, dated 2020).

Key:
NF-κB = NF-κB luciferase reporter assay in HL-60 cells; assay type: cell-based, Human; conditions: positive control, concentration not given
Description: We examined the effect of anthocyanidins on NF-κB activation using a luciferase reporter assay in HL-60 cells (Human promyelocytic leukemia cells). HL-60 cells in IMDM medium were transfected with a reporter vector with an NF-kB consensus sequence located in the luciferase promoter for 24 h at 37° C., then were incubated with delphinidin-rich anthocyanidins diluted 1:500000, 1:50000, and 1:5000. PMA was used as positive control. Luciferase activity was measured with a Dual luciferase assay kit (Promega) according to the supplier's instructions. A vector that constitutively expressed renilla luciferase was used to standardize the assay.

PPAR-γ = experiment: PPAR-γ-Luc reporter assay in HL-60 cells; assay type: cell-based, Human; conditions: control substances, 12 h, concentration not given
Description: We examined the effect of delphindin-rich anthocyanidins on PPAR-γ activation. HL-60 cells in IMDM medium were transfected with the reporter vectors PPAR-γ-Luc (5 μg) (Panomics) and TK-RL (1 μg) (Promega) using Fugene 6 reagent (Roche), and cultured for 24 hr. Then, the cells were incubated for 12 h in 0.175, 1.75, or 17.5 μg/ml of delphindin-rich anthocyanidins, phorbol myristate acetate (PMA), 15-deoxi-d 12,14-prostaglandin J2 (PGj2), or tumor necrosis factor alpha (TNFα) as controls. Luciferase activity was measured using the Dual-Luciferase Reporter Assay kit (DLR) from Promega in a luminometer (Luminoskan).

Human T cells [1] = experiment: INF-γ production in freshly isolated human T cells (ELISA); assay type: cell-based
Description: (§1) The effect of delphinidin on IL-2 and INF-γ production was also assayed on freshly isolated human T cells. Human T cells were isolated from blood of healthy volunteers using Lymphoprep reagent. T cells (1×10^6) in RMPI medium were incubated for 48 hrs at 37° C., in 5% CO2 in the presence of a vehicle control solution; 50 μM delphinidin; 50 μM delphinidin+1 μM BTP-2; 50 μM delphinidin+5 μM BTP-2; 50 μM delphinidin+10 μM BTP-2; 1 μM BTP-2; 5 μM. BTP-2; or 10 μM BTP-2. Then the supernatants were collected and analyzed using commercial ELISA kit (Becton Dickinson, USA) to measure IL-2 and INF-γ production according to the supplier's directions.

Jurkat T cells [2] = experiment: Calcium entry (SOCE) in Jurkat T cells after addition of CaCl2; assay type: cell-based; conditions: 0.9 mM CaCl2 added after 200 seconds; delphinidin 50 μM, BTP-2 10 μM
Description: To measure calcium entry after 200 seconds, when the levels of calcium returned to the baseline, 0.9 mM of CaCl2 was added, and the fluxes of Ca^2+ were measured as ratio of excitation ratio at 340 and 380 nm, and emission at 509 nm in a spectrofluorimeter during 150 seconds.
4×10^6 FURA 2-AM-loaded Jurkat T cells were incubated in HBSS calcium free medium. The cells were incubated in 50 uM delphinidin or 50 uM delphinidin plus 10 μM BTP-2 and the fluxes of Ca^2+ were measured as ratio of excitation at 340 and 380 nm, and emission at 509 nm, at 37° C. in a spectrofluorimeter (LS55, PerkinElmer).

Jurkat T cells [3] = experiment: IL-2 production in Jurkat T cells (ELISA); assay type: cell-based
Description: (§2) 2×10^6 Jurkat T cells in RPMI medium were incubated for 48 hrs at 37° C., in 5% CO2 in the presence of vehicle control solution; or the T cell activator, phorbol 12-myristate 13-acetate/lonomycin (PMA/Io 2 ng/ml 1 uM); 50 μM of delphinidin; 50 μM delphinidin+PMA/Io; 50 μM cyanidin; or 50 μM cyaniding+PMA/Io. Then the supernatants were collected and IL-2 production was analyzed by ELISA using a commercial kit (Becton Dickinson, USA) according to the supplier's directions.
Then the supernatants were collected and analyzed using commercial ELISA kit (Becton Dickinson, USA) to measure IL-2 production according to the supplier's directions.
Jurkat T cells were incubated in either a vehicle control solution; 5 nM andrographolide; 50 μM delphinidin; or 5 nM andrographolide plus 50 μM delphinidin.

Jurkat T cells [4] = experiment: INF-γ production in Jurkat T cells (ELISA); assay type: cell-based; conditions: 48 hrs
Description: as §2, with “We also explored the effect of delphinidin and cyanidin on Interferon-gamma (INF-γ) production in Jurkat T cells. 2×10^6” for “2×10^6”, “CO2. The samples were incubated” for “CO2”, “13-acetate/Ionomycin” for “13-acetate/lonomycin”, “IFN-γ” for “IL-2”

Jurkat T cells [5] = experiment: Calcium release in Jurkat T cells in HBSS calcium free medium; assay type: cell-based
Description: To measure calcium release, 4×10^6 FURA 2-AM-loaded Jurkat T cells were incubated in HBSS calcium free medium as decribed in Example 6. The cells were incubated in 50 uM delphinidin, or in 50 uM delphinidin and 10 μM N-[4-[3,5-bis(trifluoromethyl)-1H-pyrazol-1-yl]phenyl]-4-methyl-1,2,3-thiadiazole-5-carboxamide (BTP-2, a Store-Operated Calcium Entry (SOCE) inhibitor). The release of Ca^2+ was measured as ratio of excitation at 340 and 380 nm, and emission at 509 nm, for 200 seconds, at 37° C., in a spectrofluorimeter (LS55, PerkinElmer).
4×10^6 FURA 2-AM-loaded Jurkat T cells were incubated in HBSS calcium free medium. The cells were then incubated in 50 uM delphinidin and the fluxes of Ca^2+ were measured as ratio of excitation at 340 and 380 nm, and emission at 509 nm, at 37° C. in a spectrofluorimeter (LS55, PerkinElmer).
4×10^6 FURA 2-AM-loaded Jurkat T cells were incubated in HBSS calcium free medium. The cells were then treated with vehicle alone or 50 or 100 uM U73122 for 10 minutes prior to incubation in 50 uM delphinidin. Ca^2+ flux was measured as ratio of excitation at 340 and 380 nm, and emission at 509 nm, at 37° C. in a spectrofluorimeter (LS55, PerkinElmer).

Jurkat T cells [6] = experiment: Ca2+ fluxes in FURA 2-AM-loaded Jurkat T cells (spectrofluorimetry, medium with CaCl2); assay type: cell-based
Description: We evaluated the effect of delphinidin on intracellular calcium release in Jurkat T cells. Extracts were prepared according to the method of Example 1. Jurkat T cells in Hanks' Balanced Salt Solution (HBSS) medium (Invitrogen) with 0.9 mM of CaCl2 were loaded with Fura-2-acetoxymethyl ester (2.5 uM FURA 2-AM) for 30 min at 37° C., washed and incubated in 10 μM, 50 μM, and 100 μM delphinidin. The fluxes of Ca^2+ were measured as ratio of excitation at 340 and 380 nm, and emission at 509 nm, for 300 seconds, at 37° C. in a spectrofluorimeter (LS55, PerkinElmer).

Jurkat T cells [7] = experiment: IL-2 production in Jurkat T cells (ELISA); assay type: cell-based; conditions: Table 9; 48 hrs; delphinidin 50 μM, CsA
Human T cells [8] = experiment: IL-2 production in freshly isolated human T cells (ELISA); assay type: cell-based
Description: as §1
We evaluated the effect of a combination of delphinidin and andandrographolide on IL-2 production in both freshly harvested human T cells and the Jurkat cell line. Andrographolide was prepared according to the method described in Example 4. Human T cells were isolated from blood of healthy volunteers using Lymphoprep reagent. T cells (1×10^6) in RMPI medium were incubated for 48 hrs at 37° C., in 5% CO2 in the presence of a vehicle control solution; 5 nM andrographolide; 50 μM delphinidin; or 5 nM andrographolide plus 50 μM delphinidin. Then the supernatants were collected and analyzed using commercial ELISA kit (Becton Dickinson, USA) to measure IL-2 production according to the supplier's directions.

[9] = 48 hrs, 50 μM delphinidin alone
[10] = Table 5, 48 hrs, delphinidin 50 μM, cyanidin 50 μM, PMA/Io 2 ng/ml 1 uM
[11] = Table 11, andrographolide 5 nM, delphinidin 50 μM
[12] = andrographolide 5 nM, delphinidin 50 μM
[13] = delphinidin 50 μM, cyanidin 50 μM, PMA/Io 2 ng/ml 1 uM
[14] = calcium free medium, delphinidin 50 μM, BTP-2 10 μM
[15] = Table 10, 48 hrs, andrographolide 5 nM, delphinidin 50 μM

CCCCCCCCCCCCCC(=O)O[C@@H]1[C@@H](C)[C@@]2(O)[C@@H](C=C(CO)C[C@]3(O)C(=O)C(C)=C[C@@H]23)[C@@H]2C(C)(C)[C@]12OC(C)=O [PMA, phorbol myristate acetate]
Average percentage activity of control [pNF-κB/pRL-luc] (NF-κB): 50%
Average percentage activity of control [PPAR-γ-Luc/TK-RL] ± SD (PPAR-γ): 527.5 ± 536.3%

Oc1cc(O)c2cc(O)c(-c3cc(O)c(O)c(O)c3)[o+]c2c1 [delphinidin, Delphinidin]
INF-γ levels higher than untreated control cells (Human T cells [1]; 50 μM delphinidin): 950%
Average INF-γ production (Human T cells [1]; [9]): 3900 pg/mL
Percentage vs. control (INF-γ) (Human T cells [1]; [9]): 1054.1%
Average AUC of ratio 340/380 150 sec. after calcium treatments (calcium entry) (Jurkat T cells [2]): 70
Percentage compared to control (calcium entry) (Jurkat T cells [2]): 184.2%
IL-2 levels higher than untreated control cells (Jurkat T cells [3]; 50 μM, 48 hrs): 240%
Average IL-2 production (Jurkat T cells [3]; [10]): 170 pg/mL
Percentage vs. control (IL-2) (Jurkat T cells [3]; [10]): 340%
Average IL-2 production (Jurkat T cells [3]; [11]): 0.023 Abs 450 nm
Percentage compared to the control (IL-2) (Jurkat T cells [3]; [11]): 139.4%
IL-2 levels higher (Table 11) (Jurkat T cells [3]; [12]): 39.4%
INF-γ levels higher than untreated control cells (Jurkat T cells [4]; 50 μM): 250%
Average INF-γ production (Jurkat T cells [4]; [13]): 28 pg/mL
Percentage vs. control (INF-γ) (Jurkat T cells [4]; [13]): 350%
calcium release (FIG. 1), result in words (Jurkat T cells [5]; 50 uM delphinidin, calcium free medium): induced reversible calcium release
Average AUC of ratio 340/380 during 200 seconds (calcium release) (Jurkat T cells [5]; [14]): 51
Percentage compared to the control (calcium release) (Jurkat T cells [5]; [14]): 1700%
AUC higher than untreated control cells (calcium release) (Jurkat T cells [5]; delphinidin 50 μM, BTP-2 10 uM): 1700%
Average area under the curve of ratio 340/380 during 300 seconds (Jurkat T cells [6]; 10 μM delphinidin): 100
Percentage compared to control (Jurkat T cells [6]; 10 μM delphinidin): 166.7%
area under the curve higher than untreated control cells (Jurkat T cells [6]; 10 μM delphinidin): 66.7%
Average area under the curve of ratio 340/380 during 300 seconds (Jurkat T cells [6]; 50 μM delphinidin): 225
Percentage compared to control (Jurkat T cells [6]; 50 μM delphinidin): 375%
area under the curve higher than untreated control cells (Jurkat T cells [6]; 50 μM delphinidin): 275%
Average area under the curve of ratio 340/380 during 300 seconds (Jurkat T cells [6]; 100 μM delphinidin): 250
Percentage compared to control (Jurkat T cells [6]; 100 μM delphinidin): 416.7%
area under the curve higher than untreated control cells (Jurkat T cells [6]; 100 μM delphinidin): 316.7%
Ca2+ fluxes, result in words (Jurkat T cells [6]; 10, 50, 100 μM delphinidin): induced Ca^2+ fluxes in Jurkat T cells in a dose-dependent manner
Average IL-2 production (Jurkat T cells [7]): 240 pg/mL
Average IL-2 production (Human T cells [8]; Table 7, 48 hrs, 50 μM delphinidin alone): 370 pg/mL
Average IL-2 production (Human T cells [8]; [15]): 87 pg/mL
Percentage compared to the control (IL-2) (Human T cells [8]; [15]): 217.5%
IL-2 levels higher (Table 10) (Human T cells [8]; [12]): 117%
